Laboratory results taken from patent US8658591B2, “Multi-LEU peptides and analogues thereof as selective PACE4 inhibitors and effective antiproliferative agents” (priority 2008, dated 2014).
*: point of attachment. Cholyl = C[C@H](CCC(=O)*)[C@H]1CC[C@H]2[C@@H]3[C@H](O)C[C@@H]4C[C@H](O)CC[C@]4(C)[C@H]3C[C@H](O)[C@]12C

Legend:
[1] = system: DU145 cells implanted subcutaneously; test: DU145 xenograft tumor growth in nude mice; type: in vivo, Nu/Nu mice; conditions: intra-tumoral 30 mg/kg once every 2 days, start at 50 mm^3 twenty days after implantation; vehicle control 160 mm^3
Text: To test the effects of PACE4 inhibitors in vivo, a nude mouse model was used in order to validate PACE4's role in tumor progression within an integrated system. […] The genetic basis of the nude mouse mutation is a disruption of the Foxn1 gene. The nude mouse can receive many different types of tissue and tumor grafts, as it mounts no rejection response. These xenografts are commonly used to test new methods of treating tumors. Nude mice were used to test the tumor progression of control DU145 cells compared to PACE4 silenced DU145 cells (clone 4-2) (FIG. 11). Control tumor received vehicle (DMSO) injections. Control tumor continued their growth pattern, reaching an average size of 160 mm^3, while treated tumors only reached a size of 75 mm^3 (FIG. 11A). Consequently, PACE4 inhibition by the specific inhibitors described herein reduces tumors growth. The nude mouse model is well known and extensively tested (Naomoto et al., 1987, J. Cancer Res. Clin. Oncol., 113: 544-549; Taetle et al., 1987 Cancer Treat. Rep. 71: 297-304).
DU145 cells were implanted subcutaneously (sc) at two sites on the backs of Nu/Nu mice, which lack an immune system. […] The genetic basis of the nude mouse mutation is a disruption of the Foxn1 gene. The nude mouse can receive many different types of tissue and tumor grafts, as it mounts no rejection response. […]

[2] = system: prostatic cell line DU145; test: MTT cell proliferation index, DU145; type: cell-based, human; conditions: for Cell proliferation index: control = 100%, MTT after 48 hours
Experimental: The effects of the PACE4 inhibitors on cell proliferation were evaluated. MTT assay was used to evaluate the effects of PACE4 inhibitors on cell proliferation. MTT (3-(4,5-Dimethylthiazol-2-yl)-2,5-diphenyltetrazolium bromide) assay is a standard colorimetric assay for measuring cellular proliferation. Yellow MTT is reduced to purple formazan in the mitochondria of living cells. This reduction takes place only when mitochondrial reductase enzymes are active. Conversion is directly related to the number of viable cells. The MTT assay is quantitative and more sensitive than viability using trypan blue and can also be adapted to 96 well formats, whereas trypan blue tests must be read individually. Because the MTT assay requires less cell manipulation than [^3H]thymidine incorporation assays (no cell harvesting or medium changes are necessary), the possibility of error is reduced and the standard deviation values are lower. […] Other assays also known can be used to determine the effects of an inhibitor on the proliferation of a cell.
The index of cellular proliferation of cells treated with the ML and acetyl-ML (CH3CO—NH-[…]-CONH2 (SEQ ID NO: 5), see Table 2) peptides were measured using the colorimetric MTT assay (thiazolyl blue tetrazolium bromide; Sigma-Aldrich). Briefly, cells were seeded in 96-well plate (BD Biosciences) in triplicate with 100 μl of a 3.5×10^4 cells/ml cell suspension in complete growth medium. The following day, cells were carefully washed twice with PBS and media were replaced with 100 μl of either RPMI or conditioned growth media. Conditioned growth medium preparation consists in 1.2×10^5 cells seeded in 6-well plates with complete growth media. The next day, cells are washed twice with PBS and the media are replaced with 1 ml RPMI growth medium. 48 hours later, the conditioned media are collected, filtered through […] syringe filter units and incubated on different cell lines.
48 hours later, 20 μl of a MTT solution (5 mg/ml in PBS 1×) was added to each well for 4.5 h at 37° C./5% CO2. The media was then discarded and the cells were solubilized with 100 μl isopropanol/0.04 N HCl solution. The absorbance was measured at a wavelength of 550 nm with a reference at 650 nm in microplate reader (SpectraMax190™; Molecular Devices).

## Cholyl-NH-LLLLRVKR-NH2 (Cholyl-LLLLRVKR-NH2) [cholyl ML]
[1]
  average tumor size reached: 75 mm^3
[2]; DU145
  effect on cell proliferation index, in words: more potent effects than ML or acetyl-ML peptides
[2]; DU145, 1 μM peptide
  Cell proliferation index: 86.65%
[2]; DU145, 10 μM peptide
  Cell proliferation index: 38.70%
[2]; DU145, 100 μM peptide
  Cell proliferation index: 4.36%
